Measurements as given in ChEMBL document CHEMBL3407349, “The discovery of Polo-like kinase 4 inhibitors: identification of (1R,2S).2-(3-((E).4-(((cis).2,6-dimethylmorpholino)methyl)styryl). 1H.indazol-6-yl)-5'-methoxyspiro[cyclopropane-1,3'-indolin]-2'-one (CFI-400945) as a potent, orally active antitumor agent” (J Med Chem, 2015).

Experiments:
MDA-MB-468 = assay: Growth inhibition of human MDA-MB-468 cells after 5 days by SRB assay; assay type: functional
[1] = Half life in dog liver microsomes; conditions: liver microsomes
[2] = Oral bioavailability in beagle dog at 5 mg/kg; assay type: ADME, organism-based, Canis lupus familiaris; conditions: in vivo
Canis familiaris = assay: Clearance in beagle dog at 1 mg/kg, iv; assay type: ADME, organism-based, Canis lupus familiaris; design: dose 1 mg/kg, route intravenous; conditions: in vivo
Rattus norvegicus = assay: Clearance in Sprague-Dawley rat at 1 mg/kg, iv; assay type: ADME, organism-based; design: dose 1 mg/kg, route intravenous; conditions: in vivo
[3] = AUC(infinity) in Sprague-Dawley rat at 1 mg/kg, iv; assay type: ADME, organism-based; design: time infinity, dose 1 mg/kg, route intravenous; conditions: plasma
[4] = Growth inhibition of human HMEC cells after 5 days by SRB assay; assay type: cell-based; conditions: HMEC cells
[5] = AUC in athymic CD1 nude mouse at 25 mg/kg, po by LC/MS/MS analysis; assay type: ADME, organism-based; design: dose 25 mg/kg, route oral; conditions: plasma
MCF7 = assay: Growth inhibition of human MCF7 cells after 5 days by SRB assay; assay type: functional
[6] = Oral bioavailability in Sprague-Dawley rat at 5 mg/kg; assay type: ADME, organism-based; conditions: in vivo
MDA-MB-231 = assay: Growth inhibition of human MDA-MB-231 cells after 5 days by SRB assay; assay type: functional
Cytochrome P450 2D6 = Cytochrome P450 2D6 (Homo sapiens, UniProt P10635); assay: Inhibition of CYP2D6 (unknown origin) by fluorescence assay; assay type: ADME
Sequence of Cytochrome P450 2D6 (P10635 whole entry): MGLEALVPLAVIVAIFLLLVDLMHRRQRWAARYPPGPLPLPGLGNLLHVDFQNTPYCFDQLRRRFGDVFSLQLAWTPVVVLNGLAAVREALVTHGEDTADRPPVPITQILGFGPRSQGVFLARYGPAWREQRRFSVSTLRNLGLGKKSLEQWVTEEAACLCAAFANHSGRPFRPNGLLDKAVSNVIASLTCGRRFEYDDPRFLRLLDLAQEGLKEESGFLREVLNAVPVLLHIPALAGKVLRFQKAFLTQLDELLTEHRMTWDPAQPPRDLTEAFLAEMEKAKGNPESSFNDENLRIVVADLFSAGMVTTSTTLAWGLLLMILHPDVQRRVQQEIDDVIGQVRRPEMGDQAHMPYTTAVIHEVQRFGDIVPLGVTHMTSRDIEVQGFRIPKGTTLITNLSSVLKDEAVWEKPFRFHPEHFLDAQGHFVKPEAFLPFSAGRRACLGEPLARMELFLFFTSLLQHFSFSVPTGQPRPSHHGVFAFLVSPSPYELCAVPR

[7] = Half life in rat liver microsomes; conditions: liver microsomes
Cytochrome P450 3A4 [8] = biological target: T1, Cytochrome P450 3A4 (Homo sapiens, UniProt P08684); assay: Inhibition of CYP3A4 (unknown origin) using DBF as substrate by fluorescence assay
T1 sequence (P08684 whole entry): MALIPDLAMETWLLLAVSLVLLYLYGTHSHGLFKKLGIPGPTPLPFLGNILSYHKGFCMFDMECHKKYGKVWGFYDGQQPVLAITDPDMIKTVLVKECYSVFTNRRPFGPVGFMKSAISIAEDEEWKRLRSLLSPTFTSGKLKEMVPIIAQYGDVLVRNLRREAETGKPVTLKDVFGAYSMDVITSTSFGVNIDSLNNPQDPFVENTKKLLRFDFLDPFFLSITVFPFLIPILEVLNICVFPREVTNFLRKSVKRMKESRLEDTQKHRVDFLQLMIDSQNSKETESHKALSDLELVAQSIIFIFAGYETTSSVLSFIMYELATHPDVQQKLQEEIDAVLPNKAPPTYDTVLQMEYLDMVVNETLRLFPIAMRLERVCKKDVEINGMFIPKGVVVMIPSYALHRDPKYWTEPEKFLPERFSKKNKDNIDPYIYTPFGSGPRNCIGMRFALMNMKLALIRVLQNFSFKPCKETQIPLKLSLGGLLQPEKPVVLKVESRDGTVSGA

[9] = Cmax in athymic CD1 nude mouse at 25 mg/kg, po by LC/MS/MS analysis; assay type: ADME, organism-based; design: dose 25 mg/kg, route oral; conditions: in vivo
[10] = Half life in human liver microsomes; conditions: liver microsomes
Cytochrome P450 2C9 = Cytochrome P450 2C9 (Homo sapiens, UniProt P11712); assay: Inhibition of CYP2C9 (unknown origin) by fluorescence assay
Sequence of Cytochrome P450 2C9 (P11712 whole entry): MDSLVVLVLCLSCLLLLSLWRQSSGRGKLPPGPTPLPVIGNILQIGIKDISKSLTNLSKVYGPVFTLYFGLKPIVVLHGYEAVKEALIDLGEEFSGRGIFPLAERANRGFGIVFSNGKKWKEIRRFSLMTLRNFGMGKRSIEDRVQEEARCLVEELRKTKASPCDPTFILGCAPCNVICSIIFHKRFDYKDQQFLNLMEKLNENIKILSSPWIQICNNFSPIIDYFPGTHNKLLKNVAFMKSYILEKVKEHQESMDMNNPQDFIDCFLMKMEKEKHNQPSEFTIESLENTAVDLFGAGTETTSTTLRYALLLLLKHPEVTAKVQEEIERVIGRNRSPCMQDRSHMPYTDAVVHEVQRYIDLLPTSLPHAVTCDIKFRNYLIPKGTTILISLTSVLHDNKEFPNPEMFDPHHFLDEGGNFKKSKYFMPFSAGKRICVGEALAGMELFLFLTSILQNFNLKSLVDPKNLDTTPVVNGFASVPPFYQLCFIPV

[11] = AUC(infinity) in beagle dog at 1 mg/kg, iv; assay type: ADME, organism-based, Canis lupus familiaris; design: time infinity, dose 1 mg/kg, route intravenous; conditions: plasma
[12] = Half life in mouse liver microsomes; conditions: liver microsomes
HCC1954 = assay: Growth inhibition of human HCC1954 cells after 5 days by SRB assay; assay type: functional
[13] = Half life in Sprague-Dawley rat at 1 mg/kg, iv; assay type: ADME, organism-based; design: dose 1 mg/kg, route intravenous; conditions: in vivo
Cytochrome P450 3A4 [14] = biological target: T1, Cytochrome P450 3A4; assay: Inhibition of CYP3A4 (unknown origin) using BFC as substrate by fluorescence assay
[15] = Half life in beagle dog at 1 mg/kg, iv; assay type: ADME, organism-based, Canis lupus familiaris; design: dose 1 mg/kg, route intravenous; conditions: in vivo
[16] = AUC(infinity) in beagle dog at 5 mg/kg, po; assay type: ADME, organism-based, Canis lupus familiaris; design: time infinity, dose 5 mg/kg, route oral; conditions: plasma
Cytochrome P450 1A2 = biological target: T2, Cytochrome P450 1A2 (Homo sapiens, UniProt P05177); assay: Inhibition of CYP1A2 (unknown origin) by fluorescence assay; assay type: ADME
T2 sequence (P05177 whole entry): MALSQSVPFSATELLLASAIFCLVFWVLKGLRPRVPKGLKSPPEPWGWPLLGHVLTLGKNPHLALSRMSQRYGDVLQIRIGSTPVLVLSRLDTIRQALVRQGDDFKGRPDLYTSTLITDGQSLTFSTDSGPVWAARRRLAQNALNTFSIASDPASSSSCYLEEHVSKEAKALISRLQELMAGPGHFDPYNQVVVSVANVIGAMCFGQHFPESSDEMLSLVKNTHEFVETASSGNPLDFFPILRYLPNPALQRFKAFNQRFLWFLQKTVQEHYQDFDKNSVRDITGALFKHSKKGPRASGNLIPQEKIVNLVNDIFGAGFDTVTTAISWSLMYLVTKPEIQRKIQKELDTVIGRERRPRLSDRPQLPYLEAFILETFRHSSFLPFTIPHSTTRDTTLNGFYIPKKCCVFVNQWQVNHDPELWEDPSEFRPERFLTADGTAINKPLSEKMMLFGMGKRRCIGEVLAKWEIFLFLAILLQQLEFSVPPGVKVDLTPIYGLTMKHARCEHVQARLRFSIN

Cytochrome P450 2C19 = Cytochrome P450 2C19 (Homo sapiens, UniProt P33261); assay: Inhibition of CYP2C19 (unknown origin) by fluorescence assay
Sequence of Cytochrome P450 2C19 (P33261 whole entry): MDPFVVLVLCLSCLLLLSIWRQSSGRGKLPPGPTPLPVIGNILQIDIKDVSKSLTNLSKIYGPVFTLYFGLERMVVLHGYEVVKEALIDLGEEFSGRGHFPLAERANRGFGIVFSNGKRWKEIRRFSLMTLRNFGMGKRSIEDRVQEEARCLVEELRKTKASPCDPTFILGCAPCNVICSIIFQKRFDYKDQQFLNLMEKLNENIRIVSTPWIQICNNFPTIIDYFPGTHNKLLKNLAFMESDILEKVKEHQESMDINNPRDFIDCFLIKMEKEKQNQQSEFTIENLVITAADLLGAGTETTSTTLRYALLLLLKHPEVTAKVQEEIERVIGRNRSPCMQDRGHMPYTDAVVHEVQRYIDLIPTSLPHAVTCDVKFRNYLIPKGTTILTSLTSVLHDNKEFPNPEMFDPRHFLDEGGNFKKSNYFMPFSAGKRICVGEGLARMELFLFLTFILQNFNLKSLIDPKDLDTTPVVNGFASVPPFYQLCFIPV

[17] = AUC(infinity) in Sprague-Dawley rat at 5 mg/kg, po; assay type: ADME, organism-based; design: dose 5 mg/kg, route oral, time infinity; conditions: plasma

Row | SMILES | half-life [1] | bioavailability [2] | clearance (Canis familiaris) | clearance (Rattus norvegicus) | AUC(0-inf) [3] | GI50 at 120 h [4] | AUC [5] | bioavailability [6] | inhibition (INH) (Cytochrome P450 2D6) | half-life [7] | IC50 (Cytochrome P450 3A4 [8]) | Cmax [9] | half-life [10] | IC50 (Cytochrome P450 2C9) | AUC(0-inf) [11] | half-life [12] | half-life [13] | IC50 (Cytochrome P450 3A4 [14]) | half-life [15] | AUC(0-inf) [16] | further results
1 | COc1ccc2c(c1)[C@]1(C[C@H]1c1ccc3c(/C=C/c4ccc(CN5CCOCC5)cc4)n[nH]c3c1)C(=O)N2 | 9.4 min | 71% | 41.7 mL/min/kg | 66.7 mL/min/kg | 250 ng·h/mL | > 50000 nM | 9500 ng·h/mL | 22% | Not Active | 8.3 min | 6400 nM | 3500 ng/mL | 41 min | 800 nM | 402 ng·h/mL | 12 min | 66 min | 2400 nM | 52.2 min | 1420 ng·h/mL | GI50 (MDA-MB-468): < 0.1 nM; GI50 (MCF7): 0.1 nM; GI50 (MDA-MB-231): < 1 nM; GI50 (HCC1954): 250 nM; inhibition (INH) (Cytochrome P450 1A2): Not Active; IC50 (Cytochrome P450 2C19): 1200 nM; AUC(0-inf) [17]: 272 ng·h/mL
2 | O=C1Nc2ccccc2[C@]12C[C@H]2c1ccc2c(/C=C/c3ccc(CN4CCOCC4)cc3)n[nH]c2c1 | 4.7 min | 9.7% | 33.3 mL/min/kg | 53.3 mL/min/kg | 312 ng·h/mL | 50000 nM | 10000 ng·h/mL | 31% | Not Active | 7.3 min | 2700 nM | 3500 ng/mL | 45 min | 700 nM | 515 ng·h/mL | 15 min | 84 min | 6300 nM | 192 min | 250 ng·h/mL | GI50 (MDA-MB-468; Homo sapiens, MDA-MB-468, 120 h): 4.2 nM; GI50 (MCF7; Homo sapiens, MCF7, 120 h): 800 nM; GI50 (MDA-MB-231; Homo sapiens, MDA-MB-231, 120 h): 5000 nM; GI50 (HCC1954; Homo sapiens, HCC1954, 120 h): < 1 nM; inhibition (INH) (Cytochrome P450 1A2): Not Active; IC50 (Cytochrome P450 2C19): 800 nM; AUC(0-inf) [17]: 478 ng·h/mL
